{"source": "patent US9724397B2", "about": "“Sustained release formulations comprising very low molecular weight polymers” (IPSEN PHARMA S.A.S., priority 2006, dated 2017)", "experiment": "In-vivo release assay in Beagle dogs with a VLMW polymer not end-capped", "conditions": "10% BIM21003 in PLGA 50/50 ended by carboxylic acid group (J001/3000013), intramuscular, about 3.6 mg per animal, RIA", "method": "An in-vivo assay was performed with a semi-solid formulation of 10% BIM21003 using a PLGA 50/50 ended by a carboxylic acid group (J001/3000013 batch, see table 1). The preparation of the formulation was achieved by a push-pull kneading process with 2 syringes at about 50° C. as described in example 6. The mixture (bulk product) was conditioned in a 0.3 ml single-dose syringes coupled with 20×1.4 mm needles thereafter packed in individual aluminium sealed bags, and sterilized by gamma-irradiation at 25 kGy in dry ice.\nSix male Beagle dogs were administered intramuscularly with single-dose syringes previously heated at 50° C. for 3 min in order to improve its fluidity and facilitate its injection. Syringes were weighted before and after administration, and the injected dose of BIM21003 was calculated to be about 3.6 mg per animal.\nFour-ml blood samples were obtained from cephalic veins at specified time intervals post-administration. The blood samples were placed in tubes containing an anticoagulant (15% EDTA.K3 aqueous solution) and a preservative (Trasylol®). After centrifugation, plasma was removed and samples were stored below −20° C. until RIA analysis."}
{"smiles": "CC(C)C[C@H](NC(=O)[C@@H](Cc1c[nH]c2ccccc12)NC(=O)[C@H](Cc1ccc(O)cc1)NC(=O)[C@H](CO)NC(=O)[C@H](Cc1c[nH]c2ccccc12)NC(=O)[C@H](Cc1c[nH]cn1)NC(=O)[C@@H]1CCC(=O)N1)C(=O)N[C@@H](CCCNC(=N)N)C(=O)N1CCC[C@H]1C(=O)NCC(N)=O", "note": "[BIM-21003, triptorelin]", "values": [{"measurement": "BIM-21003 plasma levels after 3 days post-administration", "value": "below the limit of quantification"}]}
